# Data taken from patent US20220284983A1, “METHODS OF IDENTIFYING CIS-REGULATORY ELEMENTS AND USES THEREOF” (UNIVERSITY HEALTH NETWORK, priority 2019, published 2022).
# Test system: 16 breast cancer cell lines
# Assay: Drug response of 16 breast cancer cell lines (GRAY dataset, PharmacoGx) compared by presence or absence of CREAM-identified COREs
# Type: cell-based
# Settings: >1 = higher sensitivity when CORE present
# From the text: For example, in methods involving assessing drug sensitivity, for each CORE, average drug sensitivity of the samples with that CORE can be divided to the average drug sensitivity of the samples without that CORE. Then the COREs can be sorted based on the obtained fold changes and COREs with top fold changes can be selected.
# Therefore, in some embodiments, the top COREs can be determined as being the COREs with a minimum FDR (False Discovery Rate) after significance after multiple hypothesis correction with dindex>1 (where dindex is a measure of hazard). The FDR indicates the significance or effect of association between existence (in the case of binary features using COREs) or values of that feature and the output value (like drug sensitivity in case of biomarker discovery). The FDR is a corrected p-value for multiple hypothesis. Then the COREs that exist in less than N samples may be further filtered. The value of N may be 2 or more and depends on the particular COREs and the prognosis being predicted. For some studies described herein N was chosen to be 5. As an optional step, the remaining COREs may be combined to result in the CORE signatures that may be used for a multivariate model. In some embodiments, Fold Change may be used instead of FDR in which case for each CORE, the average drug sensitivity of the samples with that CORE can be divided by the average drug sensitivity of the samples without that CORE. Then the COREs can be sorted based on the obtained fold changes and the COREs with the top fold changes can be selected.
# CREAM was tested for biomarker discovery, for drug response, using 16 breast cancer cell lines (AU565, BT549, HCC1143, HCC1395, HCC1419, HCC1806, HCC1937, HCC3153, HCC38, HCC70, MDAMB157, MDAMB361, MDAMB453, MX1, T47D, ZR751) with available ATAC-seq profiles and response to PD98059 (a non-ATP competitive MEK inhibitor), and Floxuridine (an antimetabolite agent), as part of the data available in PharmacoGx R package (version 2.0.5) developed by Haibe-Kains laboratory. There are currently no known biomarker for response to PD98059 and Floxuridine.
# The columns in each Table are: 1) chromosome regions of the COREs; 2) pvalue; 3) Fold change.
# Fold change tells you if presence of a CORE results in higher or lower sensitivity. If Fold Change is great than 1, it means that presence of a CORE results in higher sensitivity and Fold Change is less than 1, it means that presence of a CORE results in lower sensitivity.
smiles,measurement,setting,value
O=c1[nH]c(=O)n([C@H]2C[C@H](O)[C@@H](CO)O2)cc1F [Floxuridine],Fold change,Floxuridine sensitivity with vs without CORE chr2-36473442-37039510,0.6674
same,Fold change,Floxuridine sensitivity with vs without CORE chr3-69004922-69292456,0.6617
same,Fold change,Floxuridine sensitivity with vs without CORE chr4-99547495-99584170,0.5406
same,Fold change,Floxuridine sensitivity with vs without CORE chr5-167696005-167914094,0.629
same,Fold change,Floxuridine sensitivity with vs without CORE chr6-16577121-16782003,0.5777
same,Fold change,Floxuridine sensitivity with vs without CORE chr15-60619092-60725509,0.7009
same,Fold change,Floxuridine sensitivity with vs without CORE chr16-29801700-30154789,1.653
same,Fold change,Floxuridine sensitivity with vs without CORE chr16-67184267-67407032,2.017
same,Fold change,Floxuridine sensitivity with vs without CORE chr17-21102597-21252333,0.699
COc1cccc(-c2cc(=O)c3ccccc3o2)c1N [PD98059],Fold change,PD98059 sensitivity with vs without CORE chr2-75602732-75966190,0.5231
same,Fold change,PD98059 sensitivity with vs without CORE chr6-126063660-126362254,0.4327
same,Fold change,PD98059 sensitivity with vs without CORE chr7-54328557-56189467,0.5362
same,Fold change,PD98059 sensitivity with vs without CORE chr9-75681937-75835570,0.538
same,Fold change,PD98059 sensitivity with vs without CORE chr9-103348375-103365047,0.4902
same,Fold change,PD98059 sensitivity with vs without CORE chr9-130150616-131799038,1.906
same,Fold change,PD98059 sensitivity with vs without CORE chr9-139257512-140211180,1.864
same,Fold change,PD98059 sensitivity with vs without CORE chr11-694436-876984,2.17
same,Fold change,PD98059 sensitivity with vs without CORE chr11-34183346-34607941,1.859
same,Fold change,PD98059 sensitivity with vs without CORE chr15-40330702-40453457,2.206
same,Fold change,PD98059 sensitivity with vs without CORE chr16-4965308-5008584,1.983
same,Fold change,PD98059 sensitivity with vs without CORE chr16-53766187-53861966,0.4902
same,Fold change,PD98059 sensitivity with vs without CORE chr17-21102597-21252333,0.5247
same,Fold change,PD98059 sensitivity with vs without CORE chr19-45765981-46636866,1.904
same,Fold change,PD98059 sensitivity with vs without CORE chr20-9819285-10752699,0.5253
